“Also recorded” adds a separate entry of the source.
Tests used:
Assay type in all cases: in vivo, male Carworth Farms #1 mice or Sprague-Dawley rats
[1] = Maximal Electroshock Seizure Test; details: for ED50: Mus musculus, read-out: ED50 for inhibition of seizures, MES (Phase II); for Lowest active dose, MES (Phase I): Table V; for Protection against Maximal Electroshock-induced seizures (in words): running text
[2] = Subcutaneous Pentylenetetrazol (Metrazol) Seizure Threshold Test; details: for ED50: Mus musculus, read-out: ED50 for inhibition of seizures, Metrazol (Phase II); for Lowest active dose, Metrazol (Phase I): Table V; for Protection against Metrazol-induced seizures (in words): running text
[3] = Anticonvulsant activity, both or unspecified seizure models; details: for Time of peak activity (Phase II): Table X, IP, challenge time; for Anticonvulsant activity (in words): running text
[4] = Table X, IP, at time of peak activity
[5] = Table X, IP, challenge time 30 min
[6] = Table X, IP, challenge time 4 hrs
[7] = Table X, SC, challenge time 30 min
[8] = Table X, SC, challenge time 4 hrs

Compound	Lowest effective dose, MES (Phase I) [1, 5]	Lowest effective dose, MES (Phase I) [1, 6]	Lowest effective dose, MES (Phase I) [1, 7]	Lowest effective dose, MES (Phase I) [1, 8]	Lowest effective dose, Metrazol (Phase I) [2, 5]	Lowest effective dose, Metrazol (Phase I) [2, 6]	Lowest effective dose, Metrazol (Phase I) [2, 7]	Lowest effective dose, Metrazol (Phase I) [2, 8]	Time of peak activity (Phase II) [3] [h]	Anticonvulsant activity (in words) [3]	other results
CCC1(c2ccccc2)C(=O)[N-]C(=O)NC1=O.CCC1(c2ccccc2)C(=O)[N-]C(=O)NC1=O.CCC1(c2ccccc2)C(=O)[N-]C(=O)NC1=O.CCC1(c2ccccc2)C(=O)[N-]C(=O)NC1=O.O.O.[Cu+2].[Na+].[Na+] [Na2 [Cu(II)(Phenobarbital)4](H2 O)2]	30 milligrams per kilogram of bod	100 milligrams per kilogram of bod	30 milligrams per kilogram of bod	30 milligrams per kilogram of bod	30 milligrams per kilogram of bod	100 milligrams per kilogram of bod	30 milligrams per kilogram of bod	100 milligrams per kilogram of bod	6	–	ED50 for inhibition of seizures, MES (Phase II) [1, 4]: 25 mg/kg; ED50 for inhibition of seizures, Metrazol (Phase II) [2, 4]: 20 mg/kg
CN1C(=O)CN=C(c2ccccc2)c2cc(Cl)ccc21.CN1C(=O)CN=C(c2ccccc2)c2cc(Cl)ccc21.[Cl-].[Cl-].[Cu+2] [Cu(II)(Diazepam)2 (Cl)2]	30 milligrams per kilogram of bod	30 milligrams per kilogram of bod	–	–	30 milligrams per kilogram of bod	30 milligrams per kilogram of bod	–	–	–	–	Onset and duration of anticonvulsant action (in words) [3]: rapid onset of action and prolonged duration following intraperitoneal administration
O.O=C1Nc2ccc(Cl)cc2C(c2ccccc2Cl)=NC1O.O=C1Nc2ccc(Cl)cc2C(c2ccccc2Cl)=NC1O.[Cl-].[Cl-].[Cu+2] (stereo not shown) [Cu(II)(Lorazepam)2 (Cl)2 H2 O]	20 milligrams per kilogram of bod	30 milligrams per kilogram of bod	20 milligrams per kilogram of bod	100 milligrams per kilogram of bod	I	I	I	I	–	appears to be quite active	Onset and duration of anticonvulsant action (in words) [3]: rapid onset of action and prolonged duration following intraperitoneal and subcutaneous administration
CCC1(c2ccccc2)C(=O)NC(=O)NC1=O [Phenobarbital, reference compound]	–	–	–	–	–	–	–	–	1	–	ED50 ([1]; ip): 22 mg/kg; ED50 ([2]; ip): 13 mg/kg
Cc1ncc(CO)c(C=N[C@@H](Cc2c[nH]c3ccccc23)C(=O)[O-])c1[O-].O.O.[Cu+2] [Cu(II)Pyridoxylidene-L-tryptophanate(H2 O)2]	–	–	–	–	–	–	–	–	–	more effective but only protected against the Metrazol-induced seizure	Lowest active dose, MES (Phase I) ([1]; IP, challenge time 30 min): I; Lowest active dose, MES (Phase I) ([1]; IP, challenge time 4 hrs): I; Lowest active dose, Metrazol (Phase I) ([2]; IP, challenge time 30 min): 30 mg/kg of body weight; Lowest active dose, Metrazol (Phase I) ([2]; IP, challenge time 4 hrs): 30 mg/kg of body weight
CC(=O)Oc1c(Br)cc(Br)cc1C(=O)[O-].CC(=O)Oc1c(Br)cc(Br)cc1C(=O)[O-].[Cu+2] [Cu(II)2 (3,5-dibromoacetylsalicylate)4]	–	–	–	–	–	–	–	–	–	effective in protecting against both models of seizure	Anticonvulsant activity, Metrazol (Phase I) ([2]; Table I, SC): I
CCCC(CCC)C(=O)O [Valproic Acid, reference compound]	–	–	–	–	–	–	–	–	0.25	–	ED50 [1, 4]: 272 mg/kg; Protection against Maximal Electroshock-induced seizures (in words) [1]: weakly effective against Maximal Electroshock-induced seizures; ED50 [2, 4]: 149 mg/kg; Protection against Metrazol-induced seizures (in words) [2]: more effective against Metrazol-induced seizures
CCC1(CCC(C)C)C(=O)[N-]C(=O)NC1=O.CCC1(CCC(C)C)C(=O)[N-]C(=O)NC1=O.CCC1(CCC(C)C)C(=O)[N-]C(=O)NC1=O.CCC1(CCC(C)C)C(=O)[N-]C(=O)NC1=O.O.O.O.O.O.[Cu+2].[Cu+2] [Cu(II)(Amobarbital)2 (H2 O)2.5]	300 milligrams per kilogram of bod	I	–	–	30 milligrams per kilogram of bod	I	–	–	0.5	–	ED50 for inhibition of seizures, MES (Phase II) [1, 4]: 87 mg/kg; ED50 for inhibition of seizures, Metrazol (Phase II) [2, 4]: 87 mg/kg
O=C1Nc2ccc(Cl)cc2C(c2ccccc2Cl)=NC1O (stereo not shown) [Lorazepam, reference compound]	–	–	–	–	–	–	–	–	1	–	ED50 ([1]; ip): 24 mg/kg; ED50 ([2]; ip): 0.02 mg/kg
Cu(II)2 (valproate)4	I	I	I	I	100 milligrams per kilogram of bod	I	I	600 milligrams per kilogram of bod	–	–	Protection against Maximal Electroshock-induced seizures (in words) [1]: ineffective against Maximal Electroshock seizures; Protection against Metrazol-induced seizures (in words) [2]: effective in protecting against Metrazol-induced seizures; also recorded: some inhibitory activity against Metrazol-induced seizures; Onset and duration of anticonvulsant action (in words) [3]: rapid onset and short duration of activity following intraperitoneal administration; also recorded: prolonged onset of activity at a higher dose following subcutaneous administration
Cu(II)Pyridoxylidene-L-phenylalaninate(H2 O)2	–	–	–	–	–	–	–	–	–	no activity	Lowest active dose, MES (Phase I) ([1]; IP, challenge time 30 min): I; Lowest active dose, MES (Phase I) ([1]; IP, challenge time 4 hrs): I; Lowest active dose, Metrazol (Phase I) ([2]; IP, challenge time 30 min): I; Lowest active dose, Metrazol (Phase I) ([2]; IP, challenge time 4 hrs): I
Cu(II)Pyridoxylidene-L-valinate(H2 O)	–	–	–	–	–	–	–	–	–	no activity	Lowest active dose, MES (Phase I) ([1]; IP, challenge time 30 min): I; Lowest active dose, MES (Phase I) ([1]; IP, challenge time 4 hrs): I; Lowest active dose, Metrazol (Phase I) ([2]; IP, challenge time 30 min): I; Lowest active dose, Metrazol (Phase I) ([2]; IP, challenge time 4 hrs): I
Cu(II)Carbamazepine(H2 O)2	10 milligrams per kilogram of bod	100 milligrams per kilogram of bod	30 milligrams per kilogram of bod	100 milligrams per kilogram of bod	30 milligrams per kilogram of bod	I	300 milligrams per kilogram of bod	300 milligrams per kilogram of bod	–	effective anticonvulsant	Protection against Metrazol-induced seizures (in words) [2]: did not potentiate Metrazol seizures
O=C1CN=C(c2ccccc2Cl)c2cc([N+](=O)[O-])ccc2N1.O=C1CN=C(c2ccccc2Cl)c2cc([N+](=O)[O-])ccc2N1.[Cl-].[Cl-].[Cu+2] [Cu(II)(Clonazepam)2 (Cl)2]	10 milligrams per kilogram of bod	I	1 milligrams per kilogram of bod	30 milligrams per kilogram of bod	1 milligrams per kilogram of bod	1 milligrams per kilogram of bod	1 milligrams per kilogram of bod	1 milligrams per kilogram of bod	0.5	very potent anticonvulsant	ED50 for inhibition of seizures, MES (Phase II) [1, 4]: 25 mg/kg; ED50 for inhibition of seizures, Metrazol (Phase II) [2, 4]: 0.05 mg/kg; Potency or effectiveness relative to a comparator (in words) ([3]; in vivo): four times as effective as the parent drug
CCC1(c2ccccc2)C(=O)[N-]C(=O)NC1=O.CCC1(c2ccccc2)C(=O)[N-]C(=O)NC1=O.O.O.O.[Cu+2] [Cu(II)(Phenobarbital)2 (H2 O)3]	30 milligrams per kilogram of bod	30 milligrams per kilogram of bod	30 milligrams per kilogram of bod	30 milligrams per kilogram of bod	5 milligrams per kilogram of bod	5 milligrams per kilogram of bod	30 milligrams per kilogram of bod	30 milligrams per kilogram of bod	2	–	ED50 for inhibition of seizures, MES (Phase II) [1, 4]: 16 mg/kg; ED50 for inhibition of seizures, Metrazol (Phase II) [2, 4]: 10 mg/kg
CN1C(=O)CN=C(c2ccccc2)c2cc(Cl)ccc21 [Diazepam, reference compound]	–	–	–	–	–	–	–	–	1	–	ED50 ([1]; ip): 19 mg/kg; ED50 ([2]; ip): 0.17 mg/kg
O.O.O.O=C1[N-]C(=O)C(c2ccccc2)(c2ccccc2)N1.O=C1[N-]C(=O)C(c2ccccc2)(c2ccccc2)N1.[Cu+2] [Cu(II)(Dilantin)2 (H2 O)3]	30 milligrams per kilogram of bod	30 milligrams per kilogram of bod	–	–	100 milligrams per kilogram of bod	100 milligrams per kilogram of bod	–	–	4	did not potentiate but did block both types of seizures	ED50 for inhibition of seizures, MES (Phase II) [1, 4]: 13 mg/kg; Onset and duration of anticonvulsant action (in words) [3]: rapid onset and prolonged duration in inhibiting only Maximal Electroshock-induced seizures; Time of peak effect ([3]; Phase II): 4 h
